The text below walks through data of PubChem BioAssay (NCI).

Molecules are shown by their SMILES. Several values for one entry are separate records, joined by “and”; a condition that tells them apart may be missing. Equal values may be shown once.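 Dose response: 5 concentrations. Exposure: 48 h. Format: 96-well plates. Endpoint: linear interpolation; highest concentration if not reached. GI50 marks 50% less growth. The concentration for full growth arrest is given as TGI.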

Some test systems named below: EKVX NSCLC; SF-295 CNS; UO-31 renal; A549 NSCLC; SK-MEL-2 melanoma; KM12 colon; MDA-MB-435; CAKI-1 renal.
Holding throughout (test): inhibition of tumour cell growth, NCI panel, 48 h

As to `CC(C)NC(=O)OCc1c(COC(=O)NC(C)C)c(-c2ccc(Cl)cc2)n2c1CCC2`, the GI50 in the experiment with EKVX NSCLC is 4.09 µM; in the experiment with SF-295 CNS, 1.58 µM; in the experiment with UO-31 renal, 2.05 µM; in the experiment on A549 NSCLC, 8.12 µM; in the experiment on SK-MEL-2 melanoma, 4.23 µM; in the experiment on KM12 colon, 11 µM. In addition, the GI50 in the experiment on MDA-MB-435 is 5.04 µM; in the experiment on CAKI-1 renal, 0.534 µM. Besides, the TGI in the experiment on EKVX NSCLC worked out at 32.9 µM; with SF-295 CNS, 10.6 µM; in the experiment on UO-31 renal, 6.8 µM; in the experiment with A549 NSCLC it was 33.5 µM; in the experiment with SK-MEL-2 melanoma, 17.4 µM; in the experiment on KM12 colon, 25.9 µM. Moreover, the results for the TGI in the experiment on MDA-MB-435 and in the experiment with CAKI-1 renal were 19.8 µM and 3.83 µM, respectively.

Take `COc1cccc(/C=C/c2cnc3ccccc3n2)c1OC`: the TGI with EKVX NSCLC was above 100 µM; with SF-295 CNS it was above 100 µM; in the experiment on UO-31 renal it was above 100 µM; in the experiment on A549 NSCLC it was above 100 µM; in the experiment with SK-MEL-2 melanoma, 98.5 µM; in the experiment with KM12 colon it was above 100 µM. Besides, the TGI with MDA-MB-435 and in the experiment on CAKI-1 renal was above 100 µM throughout.

Take `Cc1ccc2c(c1)NC(=O)CC(c1ccccc1)=N2`: the TGI in the experiment with EKVX NSCLC, with SF-295 CNS, in the experiment with UO-31 renal, in the experiment with A549 NSCLC, in the experiment with SK-MEL-2 melanoma and with KM12 colon was above 100 µM each time. For the same molecule, the TGI in the experiment with MDA-MB-435 and in the experiment on CAKI-1 renal was above 100 µM each time.

Consider `COC(=O)C1(F)C(=O)NC(=O)NC1O` (stereo not drawn), for which the TGI in the experiment on EKVX NSCLC, in the experiment on SF-295 CNS, in the experiment with UO-31 renal, in the experiment with A549 NSCLC, in the experiment with SK-MEL-2 melanoma and with KM12 colon was above 100 µM throughout. Further, the TGI in the experiment on MDA-MB-435 and with CAKI-1 renal was above 100 µM in each case.

For the molecule `COc1ccc(/C=C/C(=O)Oc2cc(O)cc(O)c2)cc1`, the TGI in the experiment with EKVX NSCLC was above 100 µM; in the experiment with SF-295 CNS, 52.4 µM; in the experiment with UO-31 renal, above 100 µM; with A549 NSCLC, above 100 µM; with SK-MEL-2 melanoma it was above 100 µM; in the experiment with KM12 colon, 28.4 µM. The figures for the TGI in the experiment with MDA-MB-435 and in the experiment on CAKI-1 renal were above 100 µM and 31 µM, respectively.

On to `O=C(Nc1ccc(Cl)cc1)c1cc(-c2ccc(Cl)cc2)c2sc(=O)[nH]c2n1`, for which the GI50 is 1.63 µM in the experiment with EKVX NSCLC; 1.56 µM in the experiment on SF-295 CNS; 1.59 µM with UO-31 renal; 2.49 µM with A549 NSCLC; 1.18 µM in the experiment with SK-MEL-2 melanoma; 1.58 µM in the experiment on KM12 colon. The GI50 was 2.7 µM with MDA-MB-435 and 1.95 µM in the experiment with CAKI-1 renal. Further, the TGI amounted to 11.7 µM in the experiment with EKVX NSCLC; 4.37 µM in the experiment on SF-295 CNS; 5.36 µM in the experiment on UO-31 renal; 12.7 µM in the experiment with A549 NSCLC; 3.99 µM in the experiment on SK-MEL-2 melanoma; 10.3 µM in the experiment on KM12 colon. The values for the TGI in the experiment with MDA-MB-435 and in the experiment with CAKI-1 renal were 11.2 µM and 13.1 µM, respectively.

With `Cn1cc(-c2cnc3ccc4ccc(CS(=O)(=O)NCc5ccccn5)cc4c(=O)c3c2)cn1`, the GI50 is 44.9 µM in the experiment with EKVX NSCLC; 3.61 µM in the experiment on SF-295 CNS; 12.6 µM with UO-31 renal; 25.2 µM in the experiment on A549 NSCLC; 11.8 µM in the experiment on SK-MEL-2 melanoma; 10.5 µM in the experiment on KM12 colon. The GI50 in the experiment on MDA-MB-435 is 3.33 µM; with CAKI-1 renal, 14.2 µM. For the same molecule, the TGI with EKVX NSCLC is above 100 µM; in the experiment on SF-295 CNS, above 100 µM; in the experiment on UO-31 renal, above 100 µM; in the experiment on A549 NSCLC, above 100 µM; in the experiment on SK-MEL-2 melanoma it was 53.4 µM; in the experiment on KM12 colon, 52 µM. Besides, the TGI is 27.5 µM in the experiment on MDA-MB-435 and above 100 µM in the experiment with CAKI-1 renal.

In the case of `NC1=NC(c2ccc(Cl)cc2)C2=C(N1)/C(=C/c1ccc(Cl)cc1)CCC2` (stereo not drawn), the GI50 is 13.3 µM with EKVX NSCLC; 5.71 µM in the experiment on SF-295 CNS; 9.76 µM in the experiment on UO-31 renal; 7.79 µM in the experiment with A549 NSCLC; 37.7 µM with SK-MEL-2 melanoma; 2.32 µM in the experiment on KM12 colon. Also, the GI50 in the experiment on MDA-MB-435 was 2.87 µM; in the experiment on CAKI-1 renal it was 13.6 µM. In addition, the TGI with EKVX NSCLC was 78.4 µM; in the experiment on SF-295 CNS, 25.8 µM; in the experiment on UO-31 renal, 27.9 µM; in the experiment with A549 NSCLC, 35 µM; in the experiment on SK-MEL-2 melanoma, above 70.2 µM; with KM12 colon, 5.27 µM. The TGI with MDA-MB-435 is 12 µM; in the experiment on CAKI-1 renal, above 96.7 µM.

Turning to `C#Cc1c(C(N)=O)ncn1C1OC(COP(=O)(OCc2ccc([N+](=O)[O-])o2)N(C)CCCCCl)C(O)C1O` (stereo not drawn), the GI50 with EKVX NSCLC is 82.9 µM; with SF-295 CNS, 31.2 µM; in the experiment on UO-31 renal, 34.8 µM; in the experiment on A549 NSCLC, 28.5 µM; with SK-MEL-2 melanoma, 89.9 µM; in the experiment on KM12 colon, 42.7 µM. In addition, the GI50 in the experiment with MDA-MB-435 is 46.2 µM; in the experiment on CAKI-1 renal, 47.9 µM. Further, the TGI in the experiment with EKVX NSCLC, in the experiment on SF-295 CNS, in the experiment with UO-31 renal, in the experiment with A549 NSCLC, in the experiment on SK-MEL-2 melanoma and in the experiment on KM12 colon was above 100 µM each time. Besides, the TGI with MDA-MB-435 and with CAKI-1 renal was above 100 µM throughout.

Regarding `Cc1cc(Nc2ncnc3ccc(NC4=NC(C)(C)CO4)cc23)ccc1Oc1ccn2ncnc2c1`, the GI50 in the experiment on EKVX NSCLC was 5.02 µM; in the experiment with SF-295 CNS, 14.9 µM and > 10 µM; in the experiment with UO-31 renal it was 6.29 µM and > 10 µM; in the experiment with A549 NSCLC, 14.9 µM and > 10 µM; with SK-MEL-2 melanoma it was 20.1 µM and > 10 µM; with KM12 colon it was 15.6 µM and > 10 µM. Besides, the GI50 in the experiment on MDA-MB-435 was 16.4 µM and > 10 µM; in the experiment on CAKI-1 renal, 6.3 µM and > 10 µM. For the same molecule, the TGI was above 10 µM in the experiment on EKVX NSCLC; 38.3 µM and > 10 µM in the experiment with SF-295 CNS; 84.4 µM and > 10 µM in the experiment on UO-31 renal; 82.9 µM and > 10 µM with A549 NSCLC; 46.4 µM and > 10 µM in the experiment with SK-MEL-2 melanoma; 32.1 µM and > 10 µM in the experiment with KM12 colon. In addition, the TGI was 36.9 µM and > 10 µM with MDA-MB-435; above 61.1 µM in the experiment with CAKI-1 renal.
